Measured values as given in PubChem BioAssay AID1259407 (Chemical Carcinogenesis Research Information System (CCRIS), 2018).
Activity calls are given as the source filed them. No rule for the calls is given here.

System: CCRIS mutagenicity, Ames/micronucleus/aberration tests
Test: CCRIS mutagenicity studies
[1] = Test System: AMES SALMONELLA TYPHIMURIUM, Strain/Indicator: TA98, Metabolic Activation: NONE, Method: PREINCUBATION
[2] = Test System: AMES SALMONELLA TYPHIMURIUM, Strain/Indicator: TA100, Metabolic Activation: NONE, Method: PREINCUBATION
[3] = Test System: AMES SALMONELLA TYPHIMURIUM, Strain/Indicator: TA100, Metabolic Activation: NONE, Method: STANDARD PLATE

CC(C)(C)OOC(C)(C)CCC(C)(C)OOC(C)(C)C
mutagenic call (Test System: AMES SALMONELLA TYPHIMURIUM, Strain/Indicator: TA97, Metabolic Activation: HAMSTER, LIVER, S-9, AROCLOR 1254 (10 OR 30%), Method: PREINCUBATION): inactive; negative
mutagenic call (Test System: AMES SALMONELLA TYPHIMURIUM, Strain/Indicator: TA97, Metabolic Activation: NONE, Method: PREINCUBATION): inactive; negative
mutagenic call (Test System: AMES SALMONELLA TYPHIMURIUM, Strain/Indicator: TA97, Metabolic Activation: RAT, LIVER, S-9, AROCLOR 1254 (10 OR 30%), Method: PREINCUBATION): inactive; negative
mutagenic call (Test System: AMES SALMONELLA TYPHIMURIUM, Strain/Indicator: TA98, Metabolic Activation: HAMSTER, LIVER, S-9, AROCLOR 1254 (10 OR 30%), Method: PREINCUBATION): inactive; negative
mutagenic call [1]: inactive; negative
mutagenic call (Test System: AMES SALMONELLA TYPHIMURIUM, Strain/Indicator: TA98, Metabolic Activation: RAT, LIVER, S-9, AROCLOR 1254 (10 OR 30%), Method: PREINCUBATION): inactive; negative
mutagenic call (Test System: AMES SALMONELLA TYPHIMURIUM, Strain/Indicator: TA100, Metabolic Activation: HAMSTER, LIVER, S-9, AROCLOR 1254 (10 OR 30%), Method: PREINCUBATION): inactive; negative
mutagenic call [2]: inactive; negative
mutagenic call (Test System: AMES SALMONELLA TYPHIMURIUM, Strain/Indicator: TA100, Metabolic Activation: RAT, LIVER, S-9, AROCLOR 1254 (10 OR 30%), Method: PREINCUBATION): inactive; negative
mutagenic call (Test System: AMES SALMONELLA TYPHIMURIUM, Strain/Indicator: TA1535, Metabolic Activation: HAMSTER, LIVER, S-9, AROCLOR 1254 (10 OR 30%), Method: PREINCUBATION): inactive; negative
mutagenic call (Test System: AMES SALMONELLA TYPHIMURIUM, Strain/Indicator: TA1535, Metabolic Activation: NONE, Method: PREINCUBATION): inactive; negative
mutagenic call (Test System: AMES SALMONELLA TYPHIMURIUM, Strain/Indicator: TA1535, Metabolic Activation: RAT, LIVER, S-9, AROCLOR 1254 (10 OR 30%), Method: PREINCUBATION): inactive; negative

Nc1cc([N+](=O)[O-])ccc1O
mutagenic call (End Point: IN VITRO CHROMOSOMAL ABERRATIONS, Test System: CHO CELLS, Metabolic Activation: NONE): active; positive; precipitation occurred at all concentrations
mutagenic call (End Point: IN VITRO CHROMOSOMAL ABERRATIONS, Test System: CHO CELLS, Metabolic Activation: RAT, LIVER, S-9, AROCLOR 1254): active; positive; precipitation occurred at both concentrations
mutagenic call (Test System: AMES SALMONELLA TYPHIMURIUM, Strain/Indicator: TA98, Metabolic Activation: HAMSTER, LIVER, S-9, AROCLOR 1254 (10%), Method: PREINCUBATION): active; positive
mutagenic call (Test System: AMES SALMONELLA TYPHIMURIUM, Strain/Indicator: TA98, Metabolic Activation: HAMSTER, LIVER, S-9, AROCLOR 1254, Method: PREINCUBATION): active; positive
mutagenic call [1]: inactive; negative
mutagenic call (Test System: AMES SALMONELLA TYPHIMURIUM, Strain/Indicator: TA98, Metabolic Activation: RAT, LIVER, S-9, AROCLOR 1254 (10%), Method: PREINCUBATION): inactive; negative
mutagenic call (Test System: AMES SALMONELLA TYPHIMURIUM, Strain/Indicator: TA98, Metabolic Activation: RAT, LIVER, S-9, AROCLOR 1254, Method: PREINCUBATION): inactive; negative
mutagenic call (Test System: AMES SALMONELLA TYPHIMURIUM, Strain/Indicator: TA100, Metabolic Activation: RAT, LIVER, S-9, AROCLOR 1254 (10%), Method: PREINCUBATION): inactive; negative
mutagenic call (Test System: AMES SALMONELLA TYPHIMURIUM, Strain/Indicator: TA100, Metabolic Activation: RAT, LIVER, S-9, AROCLOR 1254, Method: PREINCUBATION): inactive; negative
mutagenic call (Test System: AMES SALMONELLA TYPHIMURIUM, Strain/Indicator: TA1535, Metabolic Activation: HAMSTER, LIVER, S-9, AROCLOR 1254 (10%), Method: PREINCUBATION): inactive; negative
mutagenic call (Test System: AMES SALMONELLA TYPHIMURIUM, Strain/Indicator: TA1535, Metabolic Activation: HAMSTER, LIVER, S-9, AROCLOR 1254, Method: PREINCUBATION): inactive; negative
mutagenic call (Test System: AMES SALMONELLA TYPHIMURIUM, Strain/Indicator: TA1535, Metabolic Activation: RAT, LIVER, S-9, AROCLOR 1254 (10%), Method: PREINCUBATION): inactive; negative
mutagenic call (Test System: AMES SALMONELLA TYPHIMURIUM, Strain/Indicator: TA1535, Metabolic Activation: RAT, LIVER, S-9, AROCLOR 1254, Method: PREINCUBATION): inactive; negative
mutagenic call (Test System: AMES SALMONELLA TYPHIMURIUM, Strain/Indicator: TA1537, Metabolic Activation: HAMSTER, LIVER, S-9, AROCLOR 1254 (10%), Method: PREINCUBATION): inactive; negative
mutagenic call (Test System: AMES SALMONELLA TYPHIMURIUM, Strain/Indicator: TA1537, Metabolic Activation: HAMSTER, LIVER, S-9, AROCLOR 1254, Method: PREINCUBATION): inactive; negative
mutagenic call (Test System: AMES SALMONELLA TYPHIMURIUM, Strain/Indicator: TA1537, Metabolic Activation: RAT, LIVER, S-9, AROCLOR 1254 (10%), Method: PREINCUBATION): inactive; negative
mutagenic call (Test System: AMES SALMONELLA TYPHIMURIUM, Strain/Indicator: TA1537, Metabolic Activation: RAT, LIVER, S-9, AROCLOR 1254, Method: PREINCUBATION): inactive; negative
mutagenic call (Test System: MOUSE LYMPHOMA, Strain/Indicator: L5178Y (TK+/TK-), Metabolic Activation: NONE, Method: SUSPENSION/PLATE): active; positive

O=P(OCCC(Br)CBr)(OCCC(Br)CBr)OCCC(Br)CBr (stereo unspecified)
mutagenic call (Test System: AMES SALMONELLA TYPHIMURIUM, Strain/Indicator: TA100, Metabolic Activation: RAT, LIVER, MICROSOMES, PHENOBARBITAL, Method: PREINCUBATION): inactive; negative
mutagenic call (Test System: AMES SALMONELLA TYPHIMURIUM, Strain/Indicator: TA100, Metabolic Activation: RAT, LIVER, MICROSOMES, Method: PREINCUBATION): inactive; negative

Cc1cccc(OC(=O)N(C)N=O)c1
mutagenic call (Test System: E. COLI WP2, Strain/Indicator: WP2, Metabolic Activation: NONE, Method: STANDARD PLATE): active; positive

Nc1cnc2ccccc2c1
mutagenic call [1]: inactive; negative
mutagenic call (Test System: AMES SALMONELLA TYPHIMURIUM, Strain/Indicator: TA98, Metabolic Activation: RAT, LIVER, S-9, KANECHLOR 500 OR PHENOBARBITAL AND BETA-NAPHTHOFLAVONE, Method: PREINCUBATION): active; positive
mutagenic call [2]: inactive; negative
mutagenic call (Test System: AMES SALMONELLA TYPHIMURIUM, Strain/Indicator: TA100, Metabolic Activation: RAT, LIVER, S-9, KANECHLOR 500 OR PHENOBARBITAL AND BETA-NAPHTHOFLAVONE, Method: PREINCUBATION): active; positive

Clc1ccc(C(c2ccccc2Cl)C(Cl)Cl)cc1 (stereo unspecified)
mutagenic call (End Point: IN VITRO CHROMOSOMAL ABERRATIONS, Test System: CHINESE HAMSTER OVARY CELLS, Metabolic Activation: NONE): inactive; negative
mutagenic call (End Point: IN VITRO CHROMOSOMAL ABERRATIONS, Test System: CHINESE HAMSTER OVARY CELLS, Metabolic Activation: RAT, LIVER, S-9, AROCLOR 1254): inactive; negative
mutagenic call (Test System: AMES SALMONELLA TYPHIMURIUM, Strain/Indicator: TA98, Metabolic Activation: MOUSE, LIVER, S-9, Method: STANDARD PLATE): inactive; negative
mutagenic call (Test System: AMES SALMONELLA TYPHIMURIUM, Strain/Indicator: TA98, Metabolic Activation: NONE, Method: STANDARD PLATE): inactive; negative
mutagenic call (Test System: AMES SALMONELLA TYPHIMURIUM, Strain/Indicator: TA98, Metabolic Activation: RAT, LIVER, S-9, Method: STANDARD PLATE): inactive; negative
mutagenic call (Test System: AMES SALMONELLA TYPHIMURIUM, Strain/Indicator: TA100, Metabolic Activation: MOUSE, LUNG, S-9, Method: STANDARD PLATE): inactive; negative
mutagenic call [3]: inactive; negative
mutagenic call (Test System: AMES SALMONELLA TYPHIMURIUM, Strain/Indicator: TA100, Metabolic Activation: RAT, LIVER, S-9, Method: STANDARD PLATE): inactive; negative
mutagenic call (Test System: UDS RODENT HEPATOCYTES, Strain/Indicator: THY INCORP (NON-S-PHASE), Metabolic Activation: NONE, Method: LIQUID SCINTILLATION COUNTING): inactive; negative
mutagenic call (Test System: UDS RODENT LUNG CELLS, Strain/Indicator: THY INCORP (NON-S-PHASE), Metabolic Activation: NONE, Method: LIQUID SCINTILLATION COUNTING): active; positive

CC1(C)CCC[C@]2(C)C(C=O)C(C=O)=CC[C@@H]12 (stereo partly specified)
mutagenic call (Test System: AMES SALMONELLA TYPHIMURIUM, Strain/Indicator: TA98, Metabolic Activation: RAT, LIVER, S-9, AROCLOR 1254, Method: STANDARD PLATE): inactive; negative
mutagenic call [3]: inactive; negative
mutagenic call (Test System: AMES SALMONELLA TYPHIMURIUM, Strain/Indicator: TA2637, Metabolic Activation: NONE, Method: STANDARD PLATE): inactive; negative
mutagenic call (Test System: CHINESE HAMSTER V-79, Strain/Indicator: V-79/6-THIOGUANINE (HGPRT), Metabolic Activation: NONE): inactive; negative
